Assay [1] has as its target Phosphatidylinositol 4,5-bisphosphate 3-kinase catalytic subunit alpha isoform (Homo sapiens, UniProt P42336). Briefly: Inhibition of PI3Kalpha (unknown origin) measured after 1 hr by ADP-glo plus luminescence assay. For orientation: ADP-Glo first removes unused ATP, then detects ADP through luciferase.
In assay [2] the target is Serine/threonine-protein kinase mTOR (Homo sapiens, UniProt P42345). The assay is described as follows: Inhibition of mTOR (unknown origin) measured after 45 mins by LANCE Ultra assay. For orientation: In TR-FRET formats the signal depends on donor and acceptor labels being close together.

From ChEMBL document CHEMBL4680347, “Discovery of novel 1,3,5-triazine derivatives as potent inhibitor of cervical cancer via dual inhibition of PI3K/mTOR” (Bioorg Med Chem, 2021) come the findings set out here.

SMILES strings stand for the structures.

Phosphatidylinositol 4,5-bisphosphate 3-kinase catalytic subunit alpha isoform, sequence (P42336 whole entry, canonical isoform): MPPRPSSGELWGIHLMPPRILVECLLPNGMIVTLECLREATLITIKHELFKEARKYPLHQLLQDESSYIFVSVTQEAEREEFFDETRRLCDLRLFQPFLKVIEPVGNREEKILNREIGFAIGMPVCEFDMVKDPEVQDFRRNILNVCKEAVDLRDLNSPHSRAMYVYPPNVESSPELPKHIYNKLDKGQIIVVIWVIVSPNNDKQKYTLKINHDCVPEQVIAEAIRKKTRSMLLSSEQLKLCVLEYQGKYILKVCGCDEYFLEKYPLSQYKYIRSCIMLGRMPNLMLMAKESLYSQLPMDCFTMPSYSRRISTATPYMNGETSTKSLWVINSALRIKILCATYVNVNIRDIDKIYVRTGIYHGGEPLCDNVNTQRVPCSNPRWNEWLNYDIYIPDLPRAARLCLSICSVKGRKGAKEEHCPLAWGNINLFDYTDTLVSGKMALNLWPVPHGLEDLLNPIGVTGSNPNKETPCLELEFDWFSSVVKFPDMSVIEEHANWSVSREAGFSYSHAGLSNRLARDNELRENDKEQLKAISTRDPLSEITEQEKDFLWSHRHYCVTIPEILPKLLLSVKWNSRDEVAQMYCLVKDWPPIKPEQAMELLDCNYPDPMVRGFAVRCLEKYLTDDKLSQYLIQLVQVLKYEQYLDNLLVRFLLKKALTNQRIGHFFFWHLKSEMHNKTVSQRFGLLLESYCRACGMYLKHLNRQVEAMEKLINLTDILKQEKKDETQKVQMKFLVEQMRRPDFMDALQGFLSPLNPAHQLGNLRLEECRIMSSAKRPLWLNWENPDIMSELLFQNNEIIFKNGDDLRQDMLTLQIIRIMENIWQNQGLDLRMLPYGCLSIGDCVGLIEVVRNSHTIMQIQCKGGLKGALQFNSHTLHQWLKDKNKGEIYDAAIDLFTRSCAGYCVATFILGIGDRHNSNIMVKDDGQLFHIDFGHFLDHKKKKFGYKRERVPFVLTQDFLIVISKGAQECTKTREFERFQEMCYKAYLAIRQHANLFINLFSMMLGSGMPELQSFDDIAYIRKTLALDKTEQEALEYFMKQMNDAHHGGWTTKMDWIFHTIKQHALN

What is called IC50 is the point on the concentration scale where inhibition reaches its midpoint. For the compound `Cc1ccc(S(=O)(=O)N2CCN(c3nc(NCCN4CCOCC4)nc(N4CCOCC4)n3)CC2)cc1`, the values for the half-maximal inhibitory concentration (IC50) in assay [1] and in assay [2] were 6.03 nM and 12.8 nM, respectively.

As to `O=[N+]([O-])c1ccccc1S(=O)(=O)N1CCN(c2nc(NCCN3CCOCC3)nc(N3CCOCC3)n2)CC1`, the IC50 is 42.2 nM in assay [1] and 66.3 nM in assay [2].

On to `COc1ccc(S(=O)(=O)N2CCN(c3nc(NCCN4CCOCC4)nc(N4CCOCC4)n3)CC2)cc1`, for which the values for the IC50 in assay [1] and in assay [2] were 8.9 nM and 20.8 nM, respectively.

Consider `O=S(=O)(c1ccccc1Cl)N1CCN(c2nc(NCCN3CCOCC3)nc(N3CCOCC3)n2)CC1`, for which the IC50 was determined as 55.4 nM in assay [1] and 35.3 nM in assay [2].

With `O=S(=O)(c1ccc(Cl)cc1)N1CCN(c2nc(NCCN3CCOCC3)nc(N3CCOCC3)n2)CC1`, the values for the IC50 in assay [1] and in assay [2] were 30.9 nM and 28.2 nM, respectively.

Take `O=S(=O)(c1cccc(Cl)c1)N1CCN(c2nc(NCCN3CCOCC3)nc(N3CCOCC3)n2)CC1`: in assay [1], the IC50 came to 37.5 nM.

As for `O=S(=O)(c1ccccc1O)N1CCN(c2nc(NCCN3CCOCC3)nc(N3CCOCC3)n2)CC1`, the half-maximal inhibitory concentration (IC50) in assay [1] stood at 21.3 nM; in assay [2], 32.5 nM.

With `O=S(=O)(c1ccccc1)N1CCN(c2nc(NCCN3CCOCC3)nc(N3CCOCC3)n2)CC1`, the IC50 in assay [1] amounted to 40.6 nM; in assay [2] it was 70.4 nM.

In the case of `O=S(=O)(c1ccccc1F)N1CCN(c2nc(NCCN3CCOCC3)nc(N3CCOCC3)n2)CC1`, the IC50 worked out at 123 nM in assay [1] and 98.3 nM in assay [2].

In the case of `O=[N+]([O-])c1cccc(S(=O)(=O)N2CCN(c3nc(NCCN4CCOCC4)nc(N4CCOCC4)n3)CC2)c1`, the IC50 came out at 38.9 nM in assay [1] and 76.8 nM in assay [2].

On to `O=S(=O)(c1ccc(F)cc1)N1CCN(c2nc(NCCN3CCOCC3)nc(N3CCOCC3)n2)CC1`, for which the IC50 in assay [1] turned out to be 88 nM; in assay [2] it was 35.3 nM.

For `O=[N+]([O-])c1ccc(S(=O)(=O)N2CCN(c3nc(NCCN4CCOCC4)nc(N4CCOCC4)n3)CC2)cc1`, the IC50 in assay [1] amounted to 33.6 nM; in assay [2], 41.8 nM.

For the compound `COc1cccc(S(=O)(=O)N2CCN(c3nc(NCCN4CCOCC4)nc(N4CCOCC4)n3)CC2)c1`, the IC50 came out at 24.6 nM in assay [1] and 22.2 nM in assay [2].

On to `Cc1ccccc1S(=O)(=O)N1CCN(c2nc(NCCN3CCOCC3)nc(N3CCOCC3)n2)CC1`, for which the IC50 is 32 nM in assay [1] and 32.3 nM in assay [2].

On to `O=S(=O)(c1cccc(O)c1)N1CCN(c2nc(NCCN3CCOCC3)nc(N3CCOCC3)n2)CC1`, for which the IC50 came out at 15.6 nM in assay [1] and 21.8 nM in assay [2].

For `O=S(=O)(c1cccc(F)c1)N1CCN(c2nc(NCCN3CCOCC3)nc(N3CCOCC3)n2)CC1`, the half-inhibitory concentration (IC50) is 110 nM in assay [1] and 93.7 nM in assay [2].

`Cc1cccc(S(=O)(=O)N2CCN(c3nc(NCCN4CCOCC4)nc(N4CCOCC4)n3)CC2)c1`: the half-inhibitory concentration (IC50) in assay [1] stood at 18.7 nM.

In the case of `COc1ccccc1S(=O)(=O)N1CCN(c2nc(NCCN3CCOCC3)nc(N3CCOCC3)n2)CC1`, the concentration for half-maximal inhibition (IC50) came to 39.7 nM in assay [1] and 25.5 nM in assay [2].
